Source: PMC6037002, “Drug targeting to decrease cardiotoxicity – determination of the cytotoxic effect of GnRH-based conjugates containing doxorubicin, daunorubicin and methotrexate on human cardiomyocytes and endothelial cells” (Beilstein Journal of Organic Chemistry, 2018)
Like-named read-outs stand apart in the source and are kept apart here.

Legend:
[1] = system: human umbilical vein endothelial cells (HUVEC); test: Impedimetric measurement (xCELLigence SP), delta slope, HUVEC; conditions: for delta slope (DS), short-term / delta slope (DS), long-term: HUVEC, three parallels; for delta slope (DS), short-term: 0–2 h; for delta slope (DS), long-term: 0–72 h; for Cardiotoxicity, HUVEC: grade +++/++/+/0, key not given, summary of impedimetric cytotoxicity; for cytotoxic effect on HUVEC, result in words: long-term (0–72 h), 10^−8–10^−6 mol/L, impedimetry, one-way ANOVA
Source text: (§1) The main objective of the study reported here was to evaluate the in vitro cardiotoxic effects (as undesired side effects) of […] GnRH-III-based conjugates containing doxorubicin, daunorubicin and methotrexate on two essential target cells of cardiovascular diseases: vascular endothelial cells and cardiomyocytes. The rate of cytotoxicity (antitumor effect) vs cardiotoxicity (toxic effects on cardiomyocytes and vascular endothelium) is an important factor for efficient drug development for targeted tumor therapy with minimized side effects. The technique used in this work – impedimetry – is a dedicated one for real-time monitoring of cells to distinguish short-term (0–2 hours) and long-term (0–72 hours) effects elicited by the drug or carrier–drug conjugates. The basic theory of impedimetry is that proliferation/viability of cells is well detectable by monitoring of the electric impedance (Z) in an AC environment, due to the electric insulator character of intact surface membranes composed of the phospholipid bilayer. […] While cell physiological responses of short-term exposures result in characteristic changes of cell morphology (e.g., spreading), long-term effects characteristically influence in particular the proliferation of cells, and therefore the cytotoxic effects. The presented dimensionless values of delta slope (DS) measure the difference between the slope of the curve corresponding to the treatment and that of the control curve in impedimetric recordings, the negative signs refer to the relative values to the identical control.
(§2) Experimental part – Cellular samples
(§3) In the present study, GnRH conjugates containing anti-tumour drugs (e.g., daunorubicin, doxorubicin) were investigated in order to evaluate whether the conjugates exert a decrease cardiotoxic effect compared to that of the free drugs. The cardiac myocytes and the vascular endothelium cells are the most frequently detected target cells of antitumor compounds and they are employed in our study. Human umbilical vein endothelial cells (HUVEC; Promocell, Biomedica, Wien, Austria) were cultured in Endothelial Cell Growth Medium with Endothelial Cell Growth Supplement Mix (Promocell, Biomedica, Wien, Austria) and 100 µg/mL penicillin/streptomycin. Primary human cardiac myocytes (HCM; Promocell, Biomedica, Wien, Austria) were cultured in Myocyte Growth Medium (Promocell, Biomedica, Wien, Austria).
(§4) Impedimetric measurements
(§5) The xCELLigence SP system was used for impedimetric measurements. The bottom of the wells of a 96-well E-plate is installed with a golden electrode array that constitutes the adhesion surface. Adhering cells – acting as insulators – change the electric impedance measured on the electrodes. The measured impedance change is in direct correlation with the number of adhering cells and the extent of adhesion. The results of impedance change are given in the form of Cell Index (CI) calculated by the xCELLigence system according to the […]
(§6) where Zt is the measured impedance in a time point, Zb is the background impedance and F is an inbuilt factor (F = 15 at 10 kHz) depending on the frequency of the alternating current. The measurements took place in an incubator holding a 37 °C temperature and 5% carbon-dioxide […]
(§7) The experiments started with a measurement of baseline impedance for 1 hour. After that, the cells (10^4 cells/well) were added to the wells and allowed to adhere to the electrodes. When the adhering cells reached a balanced state in the wells, signified by the impedance curves […]
(§8) free drugs at 10−12 – 10−6 M and the conjugates at 10−8 – 10−6 M final concentrations were […]
(§9) added to the wells. The changes in impedance were measured for at least 72 hours. For each measurement three parallels were measured.
(§10) The evaluation of responses followed the previously described strategy: acute effects of compounds were evaluated as a characteristic morphology of the curves in the 0–2 hours

[2] = system: primary human cardiac myocytes (HCM); conditions: for delta slope (DS), short-term / delta slope (DS), long-term: HCM, three parallels; for delta slope (DS), short-term: 0–2 h; for delta slope (DS), long-term: 0–72 h; for Cardiotoxicity, HCM: grade +++/++/+/0, key not given, summary of impedimetric cytotoxicity; for cytotoxic effect on HCM, result in words: long-term (0–72 h), 10^−8–10^−6 mol/L (free drugs 10^−12–10^−6 mol/L), impedimetry, one-way ANOVA
Source text: as §1, §2, §3, §4, §5, §6, §7, §8, §9, §10

[3] = system: HT-29 human colon adenocarcinoma cells; conditions: MTT assay; cited from earlier work
Source text: (§11) Table 1 Comparative study of cytotoxic effects and cardiotoxicity elicited by GnRH-based antitumor compounds (1–15) and reference substances (AN-152, Dox, Dau, Mtx). IC50 values show antitumor cytotoxic characteristics of the conjugates in human breast cancer (MCF-7), human colorectal adenocarcinoma (HT-29) and human acute monocytic leukemia (MM6) derived cell lines as representative tumor cells.

[4] = system: MCF-7 human breast adenocarcinoma cells; conditions: MTT assay; cited from earlier work
Source text: as §11

[5] = system: human acute monocytic leukemia (MonoMac6) cells; conditions: cited from earlier work
Source text: as §11

Glp-His-Trp-Ser-Tyr-D-Lys(Dox-O-glut)-Leu-Arg-Pro-Gly-NH2 [AN-152, reference compound]
delta slope (DS), short-term ([1]; Table S2a, 10^-6 mol/L): 0.031
delta slope (DS), short-term ([1]; Table S2a, 10^-7 mol/L): 0.014
delta slope (DS), short-term ([1]; Table S2a, 10^-8 mol/L): -0.004
delta slope (DS), long-term ([1]; Table S2a, 10^-6 mol/L): −0.051
delta slope (DS), long-term ([1]; Table S2a, 10^-6 mol/L, listed as An-152): -0.051
delta slope (DS), long-term ([1]; Table S2a, 10^-7 mol/L): −0.029
delta slope (DS), long-term ([1]; Table S2a, 10^-7 mol/L, listed as An-152): -0.029
delta slope (DS), long-term ([1]; Table S2a, 10^-8 mol/L): -0.005
delta slope (DS), short-term ([2]; Table S2b, 10^-6 mol/L): 0.008
delta slope (DS), short-term ([2]; Table S2b, 10^-7 mol/L): -0.001
delta slope (DS), short-term ([2]; Table S2b, 10^-8 mol/L): 0.001
delta slope (DS), long-term ([2]; Table S2b, 10^-6 mol/L): −0.023
delta slope (DS), long-term ([2]; Table S2b, 10^-6 mol/L, listed as An-152): -0.023
delta slope (DS), long-term ([2]; Table S2b, 10^-7 mol/L): −0.008
delta slope (DS), long-term ([2]; Table S2b, 10^-7 mol/L, listed as An-152): -0.008
delta slope (DS), long-term ([2]; Table S2b, 10^-8 mol/L): -0.001
IC50 [3]: 1900 ± 300 nM
IC50 [4]: 200 ± 100 nM
IC50 [5]: 35 ± 10 nM

GnRH-III(Dau=Aoa) [conjugate 4]
delta slope (DS), short-term ([1]; Table S3a, 10^-6 mol/L): -0.003
delta slope (DS), short-term ([1]; Table S3a, 10^-7 mol/L): -0.003
delta slope (DS), short-term ([1]; Table S3a, 10^-8 mol/L): 0.001
delta slope (DS), long-term ([1]; Table S3a, 10^-6 mol/L): -0.001
delta slope (DS), long-term ([1]; Table S3a, 10^-7 mol/L): -0.001
delta slope (DS), long-term ([1]; Table S3a, 10^-8 mol/L): -0.001
Cardiotoxicity, HUVEC [1]: 0
cytotoxic effect on HUVEC, result in words [1]: completely lost the cytotoxic effect
delta slope (DS), short-term ([2]; Table S3b, 10^-6 mol/L): 0.001
delta slope (DS), short-term ([2]; Table S3b, 10^-7 mol/L): -0.001
delta slope (DS), short-term ([2]; Table S3b, 10^-8 mol/L): -0.002
delta slope (DS), long-term ([2]; Table S3b, 10^-6 mol/L): -0.001
delta slope (DS), long-term ([2]; Table S3b, 10^-7 mol/L): -0.001
delta slope (DS), long-term ([2]; Table S3b, 10^-8 mol/L): -0.001
Cardiotoxicity, HCM [2]: 0
cytotoxic effect on HCM, result in words [2]: completely lost their cytotoxic effect
IC50 [3]: 27800 ± 4200 nM
IC50 [4]: 6500 ± 1800 nM
IC50 [5]: > 1000 nM

GnRH-III(Dau=Aoa-GFLG) [conjugate 7]
delta slope (DS), short-term ([1]; Table S4a, 10^-6 mol/L): 0.003
delta slope (DS), short-term ([1]; Table S4a, 10^-7 mol/L): -0.012
delta slope (DS), short-term ([1]; Table S4a, 10^-8 mol/L): -0.002
delta slope (DS), long-term ([1]; Table S4a, 10^-6 mol/L): −0.013
delta slope (DS), long-term ([1]; Table S4a, 10^-7 mol/L): 0.001
delta slope (DS), long-term ([1]; Table S4a, 10^-8 mol/L): -0.001
delta slope (DS), short-term ([2]; Table S4b, 10^-6 mol/L): 0.003
delta slope (DS), short-term ([2]; Table S4b, 10^-7 mol/L): -0.001
delta slope (DS), short-term ([2]; Table S4b, 10^-8 mol/L): -0.001
delta slope (DS), long-term ([2]; Table S4b, 10^-6 mol/L): -0.002
delta slope (DS), long-term ([2]; Table S4b, 10^-7 mol/L): -0.002
delta slope (DS), long-term ([2]; Table S4b, 10^-8 mol/L): 0.001
cytotoxic effect on HCM, result in words [2]: completely lost their cytotoxic effect
IC50 [3]: 22500 ± 1700 nM
IC50 [4]: 3900 ± 1200 nM
IC50 [5]: 894 ± 250 nM

GnRH-III(Dau=Aoa-K(Dau=Aoa)) [conjugate 12]
delta slope (DS), short-term ([1]; Table S3a, 10^-6 mol/L): -0.003
delta slope (DS), short-term ([1]; Table S3a, 10^-7 mol/L): 0.010
delta slope (DS), short-term ([1]; Table S3a, 10^-8 mol/L): 0.009
delta slope (DS), long-term ([1]; Table S3a, 10^-6 mol/L): -0.001
delta slope (DS), long-term ([1]; Table S3a, 10^-7 mol/L): -0.001
delta slope (DS), long-term ([1]; Table S3a, 10^-8 mol/L): -0.001
Cardiotoxicity, HUVEC [1]: 0
cytotoxic effect on HUVEC, result in words [1]: completely lost the cytotoxic effect
delta slope (DS), short-term ([2]; Table S3b, 10^-6 mol/L): -0.001
delta slope (DS), short-term ([2]; Table S3b, 10^-7 mol/L): -0.001
delta slope (DS), short-term ([2]; Table S3b, 10^-8 mol/L): -0.001
delta slope (DS), long-term ([2]; Table S3b, 10^-6 mol/L): -0.002
delta slope (DS), long-term ([2]; Table S3b, 10^-7 mol/L): -0.001
delta slope (DS), long-term ([2]; Table S3b, 10^-8 mol/L): -0.001
Cardiotoxicity, HCM [2]: 0
cytotoxic effect on HCM, result in words [2]: completely lost their cytotoxic effect
IC50 [3]: 5600 ± 2000 nM
IC50 [4]: 3000 ± 400 nM
IC50 [5]: > 1000 nM

GnRH-III(Dau=Aoa-YRRL) [conjugate 8]
delta slope (DS), short-term ([1]; Table S4a, 10^-6 mol/L): 0.003
delta slope (DS), short-term ([1]; Table S4a, 10^-7 mol/L): -0.004
delta slope (DS), short-term ([1]; Table S4a, 10^-8 mol/L): -0.010
delta slope (DS), long-term ([1]; Table S4a, 10^-6 mol/L): −0.018
delta slope (DS), long-term ([1]; Table S4a, 10^-7 mol/L): -0.002
delta slope (DS), long-term ([1]; Table S4a, 10^-8 mol/L): -0.007
delta slope (DS), short-term ([2]; Table S4b, 10^-6 mol/L): -0.002
delta slope (DS), short-term ([2]; Table S4b, 10^-7 mol/L): -0.001
delta slope (DS), short-term ([2]; Table S4b, 10^-8 mol/L): -0.003
delta slope (DS), long-term ([2]; Table S4b, 10^-6 mol/L): −0.004
delta slope (DS), long-term ([2]; Table S4b, 10^-7 mol/L): -0.002
delta slope (DS), long-term ([2]; Table S4b, 10^-8 mol/L): -0.001
IC50 [3]: 28600 ± 5500 nM
IC50 [4]: 1800 ± 500 nM
IC50 [5]: > 1000 nM

GnRH-III(Dox-O-glut) [conjugate 1]
delta slope (DS), short-term ([1]; Table S2a, 10^-6 mol/L): 0.038
delta slope (DS), short-term ([1]; Table S2a, 10^-7 mol/L): 0.016
delta slope (DS), short-term ([1]; Table S2a, 10^-8 mol/L): -0.011
delta slope (DS), long-term ([1]; Table S2a, 10^-6 mol/L, listed as 1): -0.054
delta slope (DS), long-term ([1]; Table S2a, 10^-6 mol/L, listed as GnRH-III(Dox-O-glut)): −0.054
delta slope (DS), long-term ([1]; Table S2a, 10^-7 mol/L, listed as 1): -0.028
delta slope (DS), long-term ([1]; Table S2a, 10^-7 mol/L, listed as GnRH-III(Dox-O-glut)): −0.028
delta slope (DS), long-term ([1]; Table S2a, 10^-8 mol/L): -0.003
delta slope (DS), short-term ([2]; Table S2b, 10^-6 mol/L): 0.012
delta slope (DS), short-term ([2]; Table S2b, 10^-7 mol/L): 0.002
delta slope (DS), short-term ([2]; Table S2b, 10^-8 mol/L): 0.001
delta slope (DS), long-term ([2]; Table S2b, 10^-6 mol/L): −0.025
delta slope (DS), long-term ([2]; Table S2b, 10^-8 mol/L): −0.002
IC50 [3]: 2400 ± 200 nM
IC50 [4]: 100 ± 100 nM
IC50 [5]: 39 ± 10 nM
